These results are taken from patent publication US6270780A, “Cosmetic compositions containing resveratrol” (Chesebrough-Pond's USA Co., division of Conopco, priority 1998, dated 2001).

Molecules are shown by their SMILES. Where two headings read alike, the source gives them in different places.

In assay [1] the test system is cyclo-oxygenase. The note with it: known; cited from earlier work.
Assay [2] concerns ZR75 cells. Put plainly: 3H-thymidine incorporation (DNA synthesis) / proliferation of ZR75 cells, estrogen-like activity. Format: cell-based, human. The source says:
The following test was employed to determine whether resveratrol has an estrogen-like activity:
The ZR75 cell line is a ductal breast carcinoma cell line, originally isolated from malignant mammary epithelium of a person (Engel et al., Human breast carcinoma cells in continuous culture: A review., Cancer Res., 38: 4327-4339, 1978). This cell line contains receptors for estrogen, progesterone and other steroid hormones, but responds through an increase in proliferation only to estrogen. The cell line contains high affinity estrogen-specific receptors. Therefore, this cell line is used for testing estrogen-like activity (Markiewicz et al., In vitro bioassays of non-steroidal phytoestrogens, J. Steroid Biochem. Molec. Biol., 45: 399-405, 1993)
Methodology Used for Determining the Rate of DNA Synthesis in Cells
The incorporation of ^3 H-thymidine by cultured cells was used as an assay of cell proliferation (both for ZR75 cells and for keratinocytes). Thymidine is one of four deoxynucleosides which are the monomeric units of DNA. Prior to cell division of a somatic cell, the complete genome of the cell undergoing cell division is replicated. This involves large scale DNA synthesis by the cell and enables both daughter cells to receive identical copies of the genetic material. When ^3 H-thymidine is included in the culture media of cells which are synthesizing DNA in preparation for cell division then the labeled thymidine is incorporated into the newly synthesized DNA. The extent of incorporation of ^3 H-thymidine into a population of cells is proportional to the rate of DNA synthesis by this population of cells and therefore an indication of their cellular proliferation.
ZR75 cells (from American Type Culture Collection, Rockville, Md.) were grown in RPMI1640 media (from Gibco Life Technologies) with 10% fetal bovine serum (FBS) , 100 units penicillin per ml and 100 units of streptomycin per ml. All incubations were performed at 37° C. in 5% CO2. […] The cells were seeded at a density of one million per 75 cm2 flask. For the experiment, the cells were seeded in 24 well plates at 100,000 cells per ml per well.
After growing for 24 hours, the media was removed, the cells were washed with PBS (phosphate buffered saline, 0.01 M sodium phosphate, 0.138 M sodium chloride, 0.0027 M potassium chloride, pH 7.4) and 1 ml of RPMI 1640 without serum (but with streptomycin and penicillin) was added. Stock solutions of resveratrol in dimethyl sulfoxide (DMSO) and estradiol in water were prepared. […] After another 24 hours, one μCi of [methyl-3H] thymidine was added to each well. The media was removed after 24 hours. The cells were washed once in PBS, the PBS was removed completely and the cells were left on ice to incubate with 1 ml per well of 10% TCA (trichloroacetic acid) for 30 minutes. The plates were washed 3 times with 5% TCA to remove all traces of thymidine which wasn't incorporated into the cells. 500 μl of 0.1M sodium hydroxide was added to each well and the plates were incubated at room temperature for at least 30 minutes. 250 μl of each sample was transferred to scintillation vials and after adding 5 mL of counting fluid, the vials were counted for 5 minutes each on a setting for tritium. […] Values were expressed as mean of quadruplicate wells +/- standard deviation.
(Incorporation of labelled thymidine or its analogues reports DNA synthesis.)

The subject of assay [3] is B16 F1 cells. Nature of the assay: Melanin production by B16 cells. Format: cell-based. How it is done: B16 F1 cells were purchased from ATCC (Rockville, Md.) Subconfluent B16 cells were seeded in 96 well microtiter plates at a density of 5000 cells/well and cultured overnight in DMEM (Life Technologies, NY) containing 10% Fetal Bovine Serum, 1% penicillin/streptomycin without phenol red) at 37° C. under 5% CO2. After 24 hours, the media was replaced with fresh media containing the treatments. Cells were incubated for 72 hours at which time melanin was visible in the control treatment. Next, the melanin containing media from each well was transferred to a clean 96 well plate and quantified by reading the absorbance at 530 nm using a microplate Spectrophotometer.
For each treatment, the average of four replicate readings was calculated and expressed as percent of the average for the untreated control.
The lower the % melanin value (with a viability value of >50%), the better the skin lightening potential.

Setting [4] is: Homo sapiens, ZR75, read-out: DNA synthesis (% of Control), EXPT 1, control DMSO.
The mark [5] stands for this setting: Homo sapiens, ZR75, read-out: DNA synthesis (% of Control), EXPT 2, control DMSO.

Take `Oc1ccc(/C=C/c2cc(O)cc(O)c2)cc1` [Resveratrol, 3,4'5-stilbenetriol]: in assay [1], the cyclo-oxygenase inhibition entry is on record as “known cyclo-oxygenase inhibitor”. Besides, in assay [2] (setting [4]), the activity at 0.5 µM was 69.7 ± 10%, the activity at 1 µM is 58.8 ± 9%, the activity at 10 µM turned out to be 208 ± 32.5% and the activity at 20 µM was determined as 135 ± 21.4%. For the same compound, the activity at 40 µM in assay [2] (Homo sapiens, ZR75, read-out: DNA synthesis (% of Control), EXPT 1, 40 μM, control DMSO) worked out at 60.8 ± 26.4%. Besides, in assay [2] (Homo sapiens, ZR75, read-out: DNA synthesis (% of Control), EXPT 1, 50 μM, control DMSO), the activity at 50 µM was 4.1 ± 1.4%. Moreover, in assay [2] (setting [5]), the activity at 0.5 µM turned out to be 56.8 ± 4.2%, the activity at 1 µM came out at 60.5 ± 3.6%, the activity at 10 µM worked out at 163 ± 13.7% and the activity at 20 µM is 68 ± 3.9%. The activity at 5 µM in assay [2] (Homo sapiens, ZR75, read-out: DNA synthesis (% of Control), EXPT 2, 5 μM, control DMSO) stood at 159 ± 4.1%. For the same compound, the activity at 15 µM in assay [2] (Homo sapiens, ZR75, read-out: DNA synthesis (% of Control), EXPT 2, 15 μM, control DMSO) is 119 ± 2.5%. For the same compound, in assay [2] (concentration from 5 to 20 μM), the “proliferation of ZR 75 cells” value was “increased proliferation of ZR 75 cells”. Further, in assay [3] (Mus musculus, B16-F1, 10 μM, 72 hours), the activity at 10 µM is 80%. The activity at 25 µM in assay [3] (Mus musculus, B16-F1, 25 μM, 72 hours) turned out to be 4%. In assay [3] (Mus musculus, B16-F1, 50 μM, 72 hours), the activity at 50 µM came out at 3.9%. Also, the activity at 100 µM in assay [3] (Mus musculus, B16-F1, 100 μM, 72 hours) was found to be 6.6%. In addition, the “melanin production by skin cells” value in assay [3] (all concentrations tested where viability was greater than 50%) is “inhibited melanin production by skin cells”.
